Source: patent publication US9796719B2, “Compounds and pharmaceutical compositions thereof for the treatment of inflammatory disorders” (GALAPAGOS NV, priority 2013, dated 2017)

Key:
[1] = target: T1, hENPP2 (UniProtKB/SwissProt Sequence ref Q13822) (Homo sapiens (Human), UniProt Q13822); experiment: LPC hENPP2 assay (choline release, LPC as substrate); type: biochemical
Summary of the method: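 Detection is coupled: choline oxidase produces peroxide, which HRP uses to form quinoneimine dye from TOOS and 4-aminoantipyrine, read at 555 nm. The reaction is stopped with 20 mM EGTA in the developer mix, then incubated 30 min at room temperature; inhibition lowers signal.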

[2] = target: T1, hENPP2; experiment: FS3 hENPP2 assay (fluorogenic substrate FS-3); type: biochemical; conditions: hENPP2, FS-3 as substrate
Summary of the method: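 Compound dilutions (1/5 steps, top concentration as added 20 μM) were preincubated 30 min at room temperature with hENPP2 (0.4 or 0.64 μg/mL final) in pH 8.0 Tris buffer containing NaCl, KCl, MgCl2, CaCl2 and 0.1% fatty-acid-free BSA. FS-3 (0.75 μM as added) was then hydrolysed for 30 min at 30 °C, and fluorescence was read at 485/520 nm.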

[3] = tested on: LPA 18:2; experiment: Mouse whole blood (plasma) LPA assay; type: biochemical
Method: (§1) Whole blood is collected from rats or mouse by exsanguinations on sodium heparin tube, then after centrifugation at 3000 rpm for 15 min at 4° C., plasma is stored at −80° C. Compounds are diluted in DMSO in concentration dependent manner then 0.5 μL are dispensed into 96-wells plate placed in ice. Plasma is defrosted on ice then 49.5 μL of plasma are added into the well containing 0.5 μL of compound (1% DMSO final). Plates are covered with a lid in polypropylene and incubated at +37° C., 5% CO2, for 2 h under gentle shaking (except controls which are stored at −20° C.).
(§2) At the end of the incubation, controls are defrosted in ice and transferred in the incubated plates for LC-MS/MS analysis with a non GLP-validated method. For the analysis, plasma proteins from a 10 μL incubated plates are precipitated with an excess of methanol containing the internal standard, LPA 17:0. After centrifugation, the corresponding supernatant is injected on a C18 column. Analytes are eluted out of the column under isocratic conditions. An API5500 QTRAP mass spectrometer (ABSciex™) is used for the detection of LPA 18:2. No calibration curve is prepared for LPA 18:2, however relative quantities are evaluated based on the peak area.

[4] = tested on: LPA 18:2; experiment: Rat whole blood (plasma) LPA assay; type: biochemical
Method: as §1, §2

[5] = tested on: cells recovered in the BALF; experiment: Tobacco smoke (TS) model, lungs inflammatory cells recruitment; type: in vivo, mouse; conditions: TS-exposed mice
Method: The aim of this experiment is to evaluate the efficacy and potency of a test compound administered p.o., once or twice daily on days 6 to 11, vs reference compounds, on pulmonary inflammation induced by 11 days of TS-exposure in female C57BL/6J mice, by assessing the effect of a test compound on the tobacco smoke induced recruitment of inflammatory cells to the lungs.
The test compounds are formulated in PEG200/0.5% methylcellulose (25/75, v/v) and are given at a dose volume of 10 mL/kg. Roflumilast and Dexamethasone are included as positive […] control, respectively. Each treatment group consists of 10 mice.
A first group of mice is subjected to daily TS-exposure for 5 consecutive days and sacrificed on the day 6, 24 h after the final TS-exposure.
A second group is exposed to air for 5 consecutive days (sham exposure) and sacrificed on the day 6, 24 h after the final air-exposure.
Compound and reference-treated groups are subjected to daily TS-exposure for 11 consecutive days and sacrificed on the day 12, 24 h after the final TS-exposure. Mice are dosed p.o. on days 6 to 11, twice daily, 1 h prior to and 6 h after each TS-exposure, with either vehicle, or the test compound at 3, 5, 10 or 30 mg/kg. Another group is dosed p.o. on days 6 to 11, once daily, 1 h prior to each TS-exposure, with either vehicle, or the test compound at a selected dose, for example 10 mg/kg.
An additional group is dosed p.o., once daily, on days 6 to 11, with roflumilast at 5 mg/kg, 1 h prior to each TS-exposure. Dexamethasone is dosed p.o., twice daily, on days 6 to 11, at 0.3 mg/kg, 1 h prior to and 6 h after each TS-exposure.
For each mouse, a BAL is performed using 0.4 mL of PBS. […]
The lungs are dissected out and the left lobes are removed, snap-frozen and stored at −80° C. […] Cell data are presented as individual data points for each animal and the mean value calculated for each group. […]
Percentage inhibitions for the cell data are calculated using the formula below: […]

[6] = tested on: recruited BALF cells; experiment: LPS induced lung inflammation model (in-LPS test); type: in vivo, mouse; conditions: versus inLPS Vehicle group
Method: The aim of the assay is to assess the effect of a test compound in a mouse model of acute lung inflammation induced by intranasal instillation of LPS. The impact on the induced cells recruitment in lung is evaluated by measurement of white cells count in broncho-alveolar lavage (BAL) fluid with VetABC device (medical solution gmbh, Rothusstrasse 23, 6331 Hunenberg, Switzerland).
The animals (BALB/c J mice, 18-20 g) are obtained from Harlan Laboratories (Maison-Alfort, France). The animals are maintained on 12 hours light/dark cycle at 22° C. with ad libitum access to tap water and food. Litters are changed twice a week. For each tested compound, a group of 10 subjects is used. In addition to the test compound-treated groups, a vehicle+LPS control group (inLPS), a non-treated group (intact), and a positive control dexamethasone treated group (DEX) are used.
LPS is dissolved in saline solution in order to obtain a final 10 μg/50 μL solution for intranasal instillation, and administered at 50 μL/mouse by intranasal instillation.
The test compounds are prepared in 15 mL PEG200 (9 mL)/H2O (6 mL) to be dosed in a range of 0.3, 1, 3, 10, and 30 mg/kg, and then kept at room temperature in the dark, and are administered once (qd) or twice daily (bid) over 2 days.
Dexamethasone (10 mg/kg, bid, po) is used as a positive control.
On day 1, mice are anaesthetized by isoflurane inhalation. During breathing, LPS solution is instilled intra-nasally and mice are monitored until complete recovery from anaesthesia.
On day 2, mice are anaesthetized by intra-peritoneal injection (under a volume of 10 mL/kg) of anaesthetic solution (18 mL NaCl 0.9%+0.5 mL xylazine (5 mg/kg)+1.5 mL ketamine (75 mg/kg)).
The trachea is canulated with a catheter, and BAL is performed by 2×0.75 mL sterile PBS. The BAL fluid removed is shaked gently at room temperature before centrifugation at 1500 r.p.m. during 10 min at 4° C.
The supernatant is removed and the cell pellet is suspended in 200 μL of PBS, kept on ice and total cell count is processed with VetABC device. Finally, mice are sacrificed under anaesthesia.
For each readout, mean and sem are calculated. A difference statistically significant between intact or treated groups and inLPS Vehicle group is evaluated with Prism® software using a one-way ANOVA (for treatment groups) followed by a Student test. *: p<0.05; **: p<0.01; ***: p<0.001 versus inLPS Vehicle group.

SMILES | IC50 [1] | IC50 [2] | IC50 [3] | IC50 [4] | number of cells recovered in the BALF (macrophage cells, epithelial cells, neutrophils) ([5]; 10 mg/kg twice daily p.o.) | number of cells recovered in the BALF (macrophage cells, epithelial cells, neutrophils) ([5]; 3 mg/kg twice daily p.o.) | Effect significance on recruited BALF cells ([6]; 3 mg/kg bid po) | Effect significance on recruited BALF cells ([6]; 30 mg/kg bid po) | Effect significance on recruited BALF cells ([6]; 10 mg/kg bid po)
CCc1nc2cnc(C3=CCN(CC(=O)N4CC(O)C4)CC3)cn2c1N(C)c1nc(-c2ccc(F)cc2)c(C#N)s1 [Cpd 21, 2-((2-ethyl-6-(1-(2-(3-hydroxyazetidin-1-yl)-2-oxoethyl)-1,2,3,6-tetrahydropyridin-4-yl)imidazo[1,2-a]pyrazin-3-yl)(methyl)amino)-4-(4-fluorophenyl) thiazole-5-carbonitrile] | 100 to 500 nM | 0.01 to 25 nM | > 1000 nM |  |  |  |  |  | 
CCc1nc2cnc(N3CCN(C(=O)CN4CC(O)C4)CC3)cn2c1N(C)c1nc(-c2ccc(F)cc2)c(C#N)s1 [Cpd 12, 2-((2-ethyl-6-(4-(2-(3-hydroxyazetidin-1-yl)acetoyl)piperazin-1-yl)imidazo[1,2-a]pyrazin-3-yl)(methyl)amino)-4-(4-fluorophenyl) thiazole-5-carbonitrile] | > 1000 nM | 0.01 to 25 nM |  | > 1000 nM | significantly inhibited |  |  |  | 
CCc1nc2cnc(N3CCN(CC(=O)N4CC(O)C4)CC3)cn2c1N(C)c1nc(-c2ccc(F)cc2)c(C#N)s1 [Cpd 2, 2-((2-ethyl-6-(4-(2-(3-hydroxyazetidin-1-yl)-2-oxoethyl)piperazin-1-yl)imidazo[1,2-a]pyrazin-3-yl)(methyl)amino)-4-(4-fluorophenyl) thiazole-5-carbonitrile] | 100 to 500 nM |  |  | > 1000 nM | significantly inhibited | significantly inhibited |  |  | 
CCc1nc2ccc(N3CCN(CC(=O)N(C)C)CC3)nn2c1N(C)c1nc(-c2ccc(F)cc2)cs1 [Cpd 42, 2-(4-(2-ethyl-3-((4-(4-fluorophenyl)thiazol-2-yl)(methyl)amino)imidazo[1,2-b]pyridazin-6-yl)piperazin-1-yl)-N,N-dimethylacetamide] | 100 to 500 nM | 0.01 to 25 nM |  | 100 to 500 nM |  |  | *** (***: p<0.001) | *** (***: p<0.001) | 
CCc1nc2ccc(N3CCN(CC(=O)N4CC[C@@H](O)C4)CC3)nn2c1N(C)c1nc(-c2ccc(F)cc2)cs1 [Cpd 33, (R)-2-(4-(2-ethyl-3-((4-(4-fluorophenyl)thiazol-2-yl)(methyl)amino)imidazo[1,2-b]pyridazin-6-yl)piperazin-1-yl)-1-(3-hydroxypyrrolidin-l-yl)ethanone] | 100 to 500 nM | 0.01 to 25 nM |  |  |  |  |  |  | ** (**: p<0.01)
CCc1nc2ccc(N3CCN(CC(=O)N4CC[C@H](O)C4)CC3)nn2c1N(C)c1nc(-c2ccc(F)cc2)cs1 [Compound 34, (S)-2-(4-(2-ethyl-3-((4-(4-fluorophenyl)thiazol-2-yl)(methyl)amino)imidazo[1,2-b]pyridazin-6-yl)piperazin-1-yl)-1-(3-hydroxypyrrolidin-1-yl)ethanone] | 100 to 500 nM | 0.01 to 25 nM |  |  |  |  |  |  | * (*: p<0.05)
CCc1nc2ccc(N3CCN(CC(=O)N(C)C)CC3)nn2c1N(C)c1nc(-c2ccc(F)cc2)c(C#N)s1 [Compound 44, 2-(4-(3-((5-cyano-4-(4-fluorophenyl)thiazol-2-yl)(methyl)amino)-2-ethylimidazo[1,2-b]pyridazin-6-yl)piperazin-1-yl)-N,N-dimethylacetamide] | 0.01 to 100 nM |  |  |  |  |  | ** (**: p<0.01) |  | 
CCc1nc2ccc(C3CCN(CC(=O)N4CC(O)C4)CC3)nn2c1N(C)c1nc(-c2ccc(F)cc2)cs1 [Cpd 201, 2-(4-(2-ethyl-3-((4-(4-fluorophenyl)thiazol-2-yl)(methyl)amino)imidazo[1,2-b]pyridazin-6-yl)piperidin-1-yl)-1-(3-hydroxyazetidin-1-yl)ethanone] | 100 to 500 nM | 0.01 to 25 nM |  |  |  |  |  |  | ** (**: p<0.01)
